Laboratory results reported in patent publication US20100184806A1, “MODULATION OF NEUROGENESIS BY PPAR AGENTS” (BrainCells, Inc., priority 2006, published 2010).
Where two headings read alike, the source gives them in different places.

Key:
[1] = system: human neural stem cells (hNSCs)
Description: (§1) Mitogen-free test media with a positive control for neuronal differentiation was used along with basal media without growth factors as a negative control.
(§2) A positive control for neuronal differentiation was used along with basal media without growth factors as a negative control.
(§3) Human neural stem cells (hNSCs) were isolated and grown in monolayer culture, plated, treated with varying concentrations of rosiglitazone and/or N-acetylcysteine (test compounds), and stained with TUJ-1 antibody, as described above. Mitogen-free test media with a positive control for neuronal differentiation was used along with basal media without growth factors as a negative control.
(§4) Human neural stem cells (hNSCs) were isolated and grown in monolayer culture, plated, treated with varying concentrations of ciglitazone and/or N-acetylcysteine (test compounds), and stained with TUJ-1 antibody, as described above. Mitogen-free test media with a positive control for neuronal differentiation was used along with basal media without growth factors as a negative control.
(§5) Human neural stem cells (hNSCs) were isolated and grown in monolayer culture, plated, treated with varying concentrations of pioglitazone and/or N-acetylcysteine (test compounds), and stained with TUJ-1 antibody, as described above. Mitogen-free test media with a positive control for neuronal differentiation was used along with basal media without growth factors as a negative control.
(§6) Human neural stem cells (hNSCs) were isolated and grown in monolayer culture, plated, treated with varying concentrations of troglitazone and/or N-acetylcysteine (test compounds), and stained with TUJ-1 antibody, as described above. Mitogen-free test media with a positive control for neuronal differentiation was used along with basal media without growth factors as a negative control.
(§7) The presence of synergy was determined by use of a combination index (CI). […] The CI is a quantitative measure of the nature of drug interactions, comparing the EC50's of two compounds, when each is assayed alone, to the EC50 of each compound when assayed in combination. The combination index (CI) is equal to the following formula:
(§8) where C1 and C2 are the concentrations of a first and a second compound, respectively, resulting in 50% activity in neuronal differentiation when assayed in combination; and IC1 and IC2 are the concentrations of each compound resulting in 50% activity when assayed independently.

[2] = system: mGlu7 and mGlu8; conditions: at higher concentrations (e.g., above 1 μM); cited from earlier work
[3] = system: KA, AMPA, and NMDA iGlu receptors; conditions: cited from earlier work
[4] = molecular target: human mGlu2 receptors (Homo sapiens, UniProt Q14416); conditions: low nanomolar range, e.g. below about 10 nM, or below about 5 nM; read-out: EC50 against human mGlu2 receptors in vitro; cited from earlier work
[5] = molecular target: human mGlu3 receptors (Homo sapiens, UniProt Q14832); conditions: low nanomolar range, e.g. below about 10 nM, or below about 5 nM; read-out: EC50 against human mGlu3 receptors in vitro; cited from earlier work
[6] = system: human neural stem cells (hNSCs); assay: Neuronal differentiation of human neural stem cells (TUJ-1 staining); conditions: read-out: EC50, neuronal differentiation, extrapolated, agent alone, extrapolated based on the data
Description: as §1, §2, §3, §4, §5, §6, §7, §8

[7] = molecular target: mGluR3 (Homo sapiens, UniProt Q14832); conditions: read-out: IC50 against mGluR3; cited from earlier work
[8] = system: Group I or Group III receptors; conditions: at sub-mM concentrations; cited from earlier work
[9] = molecular target: mGluR2 (Homo sapiens, UniProt Q14416); conditions: read-out: IC50 against mGluR2; cited from earlier work
Chain of mGluR2 (Q14416 19-872): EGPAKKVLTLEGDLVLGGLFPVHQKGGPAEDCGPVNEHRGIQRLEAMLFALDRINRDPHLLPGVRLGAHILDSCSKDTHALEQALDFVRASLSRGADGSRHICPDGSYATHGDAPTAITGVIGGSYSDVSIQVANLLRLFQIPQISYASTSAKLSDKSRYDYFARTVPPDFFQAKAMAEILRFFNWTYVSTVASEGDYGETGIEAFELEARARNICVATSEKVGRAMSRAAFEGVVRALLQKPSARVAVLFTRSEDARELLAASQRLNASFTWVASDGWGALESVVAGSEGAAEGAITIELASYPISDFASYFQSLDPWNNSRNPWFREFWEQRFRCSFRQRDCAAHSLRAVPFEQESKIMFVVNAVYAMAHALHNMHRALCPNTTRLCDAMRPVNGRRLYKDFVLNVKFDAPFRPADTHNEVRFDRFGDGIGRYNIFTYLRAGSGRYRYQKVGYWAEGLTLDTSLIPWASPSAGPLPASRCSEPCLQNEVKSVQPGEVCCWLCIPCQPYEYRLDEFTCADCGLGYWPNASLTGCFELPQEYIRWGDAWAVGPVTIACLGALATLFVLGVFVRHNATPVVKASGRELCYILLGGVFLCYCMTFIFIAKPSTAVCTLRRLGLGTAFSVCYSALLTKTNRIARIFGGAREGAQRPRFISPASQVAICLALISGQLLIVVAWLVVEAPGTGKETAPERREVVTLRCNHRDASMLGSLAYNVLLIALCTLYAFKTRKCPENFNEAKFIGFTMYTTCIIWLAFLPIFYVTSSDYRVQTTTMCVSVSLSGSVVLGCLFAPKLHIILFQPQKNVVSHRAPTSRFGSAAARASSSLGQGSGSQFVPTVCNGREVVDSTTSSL

Chain of human mGlu2 receptors (Q14416 19-872): as above
Chain of mGluR3 (Q14832 23-879): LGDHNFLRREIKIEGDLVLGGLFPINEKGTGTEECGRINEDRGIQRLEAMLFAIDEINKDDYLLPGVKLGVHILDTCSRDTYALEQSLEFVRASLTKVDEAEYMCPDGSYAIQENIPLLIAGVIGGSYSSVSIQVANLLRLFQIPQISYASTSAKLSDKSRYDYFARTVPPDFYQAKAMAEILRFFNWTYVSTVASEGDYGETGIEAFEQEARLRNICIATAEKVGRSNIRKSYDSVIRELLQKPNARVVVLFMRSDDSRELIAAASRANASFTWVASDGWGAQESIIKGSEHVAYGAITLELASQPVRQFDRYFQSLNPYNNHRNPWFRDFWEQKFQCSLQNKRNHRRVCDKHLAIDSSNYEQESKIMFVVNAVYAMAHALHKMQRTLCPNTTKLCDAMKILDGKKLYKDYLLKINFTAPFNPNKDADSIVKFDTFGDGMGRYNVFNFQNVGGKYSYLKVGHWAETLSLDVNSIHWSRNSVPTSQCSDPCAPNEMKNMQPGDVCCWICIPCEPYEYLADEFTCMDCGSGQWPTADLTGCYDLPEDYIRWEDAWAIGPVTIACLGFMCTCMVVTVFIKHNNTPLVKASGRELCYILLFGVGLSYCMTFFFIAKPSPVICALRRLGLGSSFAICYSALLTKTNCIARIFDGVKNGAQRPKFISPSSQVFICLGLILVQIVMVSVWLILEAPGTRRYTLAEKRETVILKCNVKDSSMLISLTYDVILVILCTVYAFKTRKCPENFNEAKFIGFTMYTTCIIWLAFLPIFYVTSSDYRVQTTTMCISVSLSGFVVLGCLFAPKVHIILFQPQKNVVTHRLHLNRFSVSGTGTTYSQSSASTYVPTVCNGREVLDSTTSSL
Chain of human mGlu3 receptors (Q14832 23-879): as above

Row | SMILES | EC50 [1] [µM] | also measured
1 | CC(=O)N[C@@H](CS)C(=O)O [NAC, N-acetyl-L-cysteine] | 5.55 | 
2 | CC(C)(Oc1ccc(C2CC2(Cl)Cl)cc1)C(=O)O (stereo not shown) [ciprofibrate] | 2.1 | 
3 | CC1(COc2ccc(CC3SC(=O)NC3=O)cc2)CCCCC1 (stereo not shown) [ciglitazone, 5-{4-[(1-methylcyclohexyl)methoxy]benzyl}-1,3-thiazolidine-2,4-dione] | 0.1 | 
4 | N[C@](CC1c2ccccc2Oc2ccccc21)(C(=O)O)[C@H]1C[C@@H]1C(=O)O [LY341495, (2S)-2-amino-2-(1S,2S-2-carboxycycloprop-1-yl)-3-(xanth-9-yl) propanoic acid] |  | activity against mGlu7 and mGlu8 [2]: antagonist activity; activity against KA, AMPA, and NMDA iGlu receptors [3]: substantially inactive
5 | Cc1c(C)c2c(c(C)c1O)CCC(C)(COc1ccc(CC3SC(=O)NC3=O)cc1)O2 (stereo not shown) [troglitazone, 5-(4-[(6-hydroxy-2,5,7,8-tetramethylchroman-2-yl)methoxy]benzyl)thiazolidine-2,4-dione] | 10 | 
6 | CCOC(=O)C(C)(C)Oc1ccc(Cl)cc1 [clofibrate] | 2.6 | 
7 | CCc1ccc(CCOc2ccc(CC3SC(=O)NC3=O)cc2)nc1 (racemic) [pioglitazone, (RS)-5-(4-[2-(5-ethylpyridin-2-yl)ethoxy]benzyl)-thiazolidine-2,4-dione] | 0.348 | 
8 | N[C@@]1(C(=O)O)CO[C@H]2[C@H](C(=O)O)[C@H]21 [LY379268, (−)-2-oxa-4-aminobicyclohexane-4,6-dicarboxylic acid] |  | EC50 [4]: < 0.01 µM; EC50 [5]: < 0.01 µM
9 | Nc1c2c(nc3ccccc13)CCCC2 [tacrine] | 12.6 | 
10 | O=C(Nc1ccncc1)c1cc([N+](=O)[O-])ccc1Cl [T0070907] |  | EC50 [6]: 5.4 µM
11 | NC1(C(=O)O)CCc2cc(P(=O)(O)O)ccc21 (racemic) [APICA, (RS)-1-amino-5-phosphonoindan-1-carboxylic acid] |  | IC50 [7]: ~30 µM; activity against Group I or Group III receptors [8]: no appreciable activity; IC50 [9]: ~30 µM
12 | CN(CCOc1ccc(CC2SC(=O)NC2=O)cc1)c1ccccn1 (racemic) [rosiglitazone, (RS)-5-[4-(2-[methyl(pyridin-2-yl)amino]ethoxy)-benzyl]thiazolidine-2,4-dione] | 1.8 | 
